In this assay the target is T1, TRPC4 (Homo sapiens, UniProt Q9UBN4).
T1 construct: expressed in transfected cells
T1 sequence (Q9UBN4 1-982 isoform Q9UBN4-5): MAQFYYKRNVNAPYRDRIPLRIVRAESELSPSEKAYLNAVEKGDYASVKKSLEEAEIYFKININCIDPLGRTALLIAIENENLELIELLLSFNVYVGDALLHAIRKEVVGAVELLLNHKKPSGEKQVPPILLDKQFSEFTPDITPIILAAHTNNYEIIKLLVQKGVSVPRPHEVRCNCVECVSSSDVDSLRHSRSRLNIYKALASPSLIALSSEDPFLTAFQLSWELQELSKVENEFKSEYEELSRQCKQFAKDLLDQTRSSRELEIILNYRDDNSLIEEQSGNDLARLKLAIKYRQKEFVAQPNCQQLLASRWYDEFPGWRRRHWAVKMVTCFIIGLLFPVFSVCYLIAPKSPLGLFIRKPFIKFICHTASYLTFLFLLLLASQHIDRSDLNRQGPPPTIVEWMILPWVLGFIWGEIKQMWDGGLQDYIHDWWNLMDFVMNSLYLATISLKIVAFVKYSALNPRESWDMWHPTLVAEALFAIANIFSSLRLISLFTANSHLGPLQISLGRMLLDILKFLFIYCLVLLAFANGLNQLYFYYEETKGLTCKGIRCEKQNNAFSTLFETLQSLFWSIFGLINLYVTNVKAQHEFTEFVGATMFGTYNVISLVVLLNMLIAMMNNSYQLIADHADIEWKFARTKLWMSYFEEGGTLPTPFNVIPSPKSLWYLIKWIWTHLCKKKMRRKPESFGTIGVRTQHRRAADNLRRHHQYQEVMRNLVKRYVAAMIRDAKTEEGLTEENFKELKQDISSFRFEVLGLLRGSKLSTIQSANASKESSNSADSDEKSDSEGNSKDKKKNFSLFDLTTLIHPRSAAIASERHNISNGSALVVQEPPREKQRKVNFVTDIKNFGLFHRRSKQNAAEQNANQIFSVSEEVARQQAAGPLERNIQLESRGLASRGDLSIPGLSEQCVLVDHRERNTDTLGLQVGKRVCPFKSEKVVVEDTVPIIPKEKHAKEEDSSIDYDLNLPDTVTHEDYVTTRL
As to the kind of experiment: TRPC4 activity assay (FLIPR calcium fluorescence, Englerin A stimulation). The assay is classed as cell-based. The conditions noted are these: HEK-TREx hTRPC4 cells, 100 nM Englerin A stimulation; read-out: TRPC4 (IC50 class). The protocol:
ICLN-1694 cells (HEK-TREx hTRPC4) expressing TRPC4 were generated as follows. Commercially available HekTrex-293 cells were seeded at 0.7×10^6 cells/well in a 1×6-well plate 24 hrs prior to transfection using 2 mL cell growth media containing no antibiotics (1× DMEM/high glucose (Hyclone #SH30022.02); 10%0/fetal bovine serum (Sigma) 2 mM sodium pyruvate, 10 mM HEPES). […] On day 2, 2 μg of plasmid DNA plus 6 μl of Xtreme-GENE HP reagent in Optimem (200 μl total volume) was prepared and incubated for 15 min at room temperature. This plasmid solution was then gently overlayed dropwise onto each well and the plate was gently swirled to mix complex with the media for approximately 30 seconds. Transfected cells were incubated at 37° C. in a 10% C02 incubator for 24 hrs. The transfected cells were harvested and transferred into 2×150 mm dishes containing cell growth media with no antibiotics at 37° C.
The next day selection was initiated to generate a stable pool by adding cell growth media containing 150 μg/mL Hygromycin and 5 μg/mL Blasticidin and cells were allowed to grow. Media with the selection agent was changed every 1-2 days as needed to remove dead cells. After 7 days, the hygromycin concentration was reduced to 75 μg/mL and cells growth was allowed to continue.
Single clones were selected as follows. The stable pool was diluted to 10 cells/mL and seeded (100 μl/well) into 24×96 well plates (˜1 cell/well) and allowed to grow for 7 days in cell growth media. Fresh media (100 μl) was added and the cells allowed to grow for another 1-2 weeks and then stored frozen or used immediately.
10-point dose response curves were generated using the Echo-550 acoustic dispenser. Compound source plates were made by serially diluting compound stocks to create 10 mM, 1 mM, and 0.1 mM solutions in DMSO into Echo-certified LDV plates. The Echo then serially spotted 100% DMSO stock solutions into source dose response plates to generate a 4-fold dilution scheme. 100% DMSO was added to the spotted dose response plates to bring the final volume to 5 μl. […] of the dose response stock plate was then spotted into pre-incubation and stimulation assay plates. 50 μl of pre-incubation buffer and 100 μl of stimulation buffer was then added to the plates resulting in a final assay test concentration range of 30 μM to 0.0001 μM with a final DMSO concentration of 0.3%.
ICLN-1694 cells (HEK-TREx hTRPC4) were plated onto 384 well, black pdl-coated microplates and maintained in cell growth media supplemented with 1 μg/mL tetracycline the day prior to use for experiments. TRPC4 expression was induced by the application of 1 μg/mL tetracycline at the time of plating. […] Cells were incubated at room temperature, protected from light, for 60-90 minutes. After the incubation period, the dye was removed and replaced with 10 μl of EBSS. Cell, pre-incubation and stimulation plates were loaded onto the FLIPR-II and the assay was initiated. The FLIPR measured a 10 second baseline and then added 10 μl of 2X compounds (or controls). Changes in fluorescence were monitored for an additional 5 minutes. After a 5 minute pre-incubation, 20 μl of 2X Englerin A (with 1X compound or controls) was added to the cell plate. The final Englerin A stimulation concentration in the assay was 100 nM. After the Englerin A addition, changes in fluorescence were monitored for an additional 5 minutes.
Compound modulation of TRPC4 calcium response was determined as follows. After the Englerin A, fluorescence was monitored for a 5-minute period. The maximum relative fluorescence response (minus the control response of 1 μM of an internal control compound known to maximally block TRPC4 calcium response, the “REF INHIB” in the formula below) was captured and exported from the FLIPR.
Compound effect is calculated as % inhibition using the following formula:
[formula] wherein “RFU” is the relative fluorescent units.

The results in this text go back to patent US11046690B2, “Pyridazinones and methods of use thereof” (Goldfinch Bio, Inc., priority 2018, dated 2021).

A value given as a limit tells only on which side of the number the result lay.

As to `O=c1[nH]ncc(N2CCc3c(ncnc3Oc3ccccc3Cl)C2)c1Cl` [Compound 101], the IC50 was less than 0.05 µM.
`Nc1nc2c(c(Oc3ccccc3C(F)(F)F)n1)CCN(c1cn[nH]c(=O)c1Cl)C2` [Compound 102]: the IC50 was less than 0.05 µM.
In the case of `O=c1[nH]ncc(N2CCc3c(ncnc3Oc3ccccc3C(F)F)C2)c1Cl` [Compound 103, 4-Chloro-5-[4-[2-(difluoromethyl)phenoxy]-5H,6H,7H,8H-pyrido[3,4-d]pyrimidin-7-yl]-2,3-dihydropyridazin-3-one], the IC50 is less than 0.05 µM.
For `O=c1[nH]ncc(N2CCc3c(ncnc3Oc3ccc(F)cc3C(F)F)C2)c1Cl` [Compound 105] the value was less than 0.05 µM; for `O=c1[nH]ncc(N2CCc3c(ncnc3Oc3cc(F)ccc3C(F)(F)F)C2)c1Cl` [Compound 106], 0.05 to 0.5 µM; for `O=c1[nH]ncc(N2CCc3c(ncnc3Oc3cnccc3C(F)(F)F)C2)c1Cl` [Compound 107], 0.05 to 0.5 µM.
As to `N#Cc1cccc(Oc2ncnc3c2CCN(c2cn[nH]c(=O)c2Cl)C3)c1Cl` [Compound 108, 2-Chloro-3-[[7-(5-chloro-6-oxo-1,6-dihydropyridazin-4-yl)-5H,6H,7H,8H-pyrido[3,4-d]pyrimidin-4-yl]oxy]benzonitrile], the IC50 is 0.5 to 1 µM.
Consider `CCc1c(F)cccc1Oc1ncnc2c1CCN(c1cn[nH]c(=O)c1Cl)C2` [Compound 109, 4-Chloro-5-[4-(2-ethyl-3-fluorophenoxy)-5H,6H,7H,8H-pyrido[3,4-d]pyrimidin-7-yl]-2,3-dihydropyridazin-3-one], for which the IC50 was in the range of 0.05 to 0.5 µM.
In the case of `COc1nc2c(c(Oc3ccccc3C(F)(F)F)n1)CCN(c1cn[nH]c(=O)c1Cl)C2` [Compound 110, 4-Chloro-5-[2-methoxy-4-[2-(trifluoromethyl)phenoxy]-5H,6H,7H,8H-pyrido[3,4-d]pyrimidin-7-yl]-2,3-dihydropyridazin-3-one] it was less than 0.05 µM.
For `Nc1nc2c(c(Oc3ccc(F)cc3Cl)n1)CCN(c1cn[nH]c(=O)c1Cl)C2` [Compound 112, 5-[2-amino-4-(2-chloro-4-fluorophenoxy)-5H,6H,7H,8H-pyrido[3,4-d]pyrimidin-7-yl]-4-chloro-2,3-dihydropyridazin-3-one] the value was 0.05 to 0.5 µM; for `Nc1nc2c(c(Oc3ccccc3Cl)n1)CCN(c1cn[nH]c(=O)c1Cl)C2` [Compound 113], 0.05 to 0.5 µM.
For `O=c1[nH]ncc(N2CCc3c(nc(CO)nc3Oc3ccc(F)cc3Cl)C2)c1Cl` [Compound 114] the value was less than 0.05 µM; for `O=c1[nH]ncc(N2CCc3c(nc(NCCO)nc3Oc3ccccc3C(F)(F)F)C2)c1Cl` [Compound 115, 4-chloro-5-[2-[(2-hydroxyethyl)amino]-4-[2-(trifluoromethyl)phenoxy]-5H,6H,7H,8H-pyrido[3,4-d]pyrimidin-7-yl]-2,3-dihydropyridazin-3-one], 0.05 to 0.5 µM; for `Nc1nc2c(c(Oc3ccc(F)cc3C(F)(F)F)n1)CCN(c1cn[nH]c(=O)c1Cl)C2` [Compound 116], less than 0.05 µM.
With `C[C@@H]1c2ncnc(Oc3ccc(F)cc3Cl)c2CCN1c1cn[nH]c(=O)c1Cl` [Compound 118, 4-chloro-5-[(8R)-4-(2-chloro-4-fluorophenoxy)-8-methyl-5H,6H,7H,8H-pyrido[3,4-d]pyrimidin-7-yl]-2,3-dihydropyridazin-3-one], the IC50 lay in the range of 0.05 to 0.5 µM.
Turning to `C[C@@H](O)c1nc2c(c(Oc3ccc(F)cc3Cl)n1)CCN(c1cn[nH]c(=O)c1Cl)C2` [Compound 119], the IC50 was less than 0.05 µM.
`O=c1[nH]ncc(N2CCc3c(ccnc3Oc3ccc(F)cc3C(F)(F)F)C2)c1Cl` [Compound 120, 4-chloro-5-[5-[4-fluoro-2-(trifluoromethyl)phenoxy]-1,2,3,4-tetrahydro-2,6-naphthyridin-2-yl]-2,3-dihydropyridazin-3-one]: the IC50 is less than 0.05 µM.
